Results as given in patent US7932281B2, “Amine-based compound and use thereof” (Kureha Corporation, priority 2004, dated 2011).

Columns and labels:
CXCR4 = biological target: T1, CXCR4 (Homo sapiens, UniProt P61073); test: Inhibition of 125I-SDF-1α binding to receptors CXCR4 on MT-4 cells (Test Example 2); details: binding-inhibition % at 0.01 μM, 2 hours under ice-cooling, read-out: Inhibition rate (%)
T1 construct: endogenous in cells; host or cells: MT-4 cells
Procedure: MT-4 cells (5×10^6/0.2 ml/well) were cultured on a 24-well microtiter plate. After the cells were incubated for 24 hours at 37° C. in a carbon dioxide gas incubator, a culture medium was replaced with a buffer solution (0.1% BSA-containing RPMI-1640). Together with a ligand ^125I-SDF-1α (specific activity: 2,200 Ci/mmol; available from Daiichi Pure Chemicals Co., Ltd. (Tokyo)), test materials with various concentrations were subjected to a binding reaction for 2 hours under ice-cooling. […] Then, a rate of inhibition of the binding between radioactive ligands and receptors CXCR4 by a test material was calculated (a binding-inhibition % at 0.01 μM).

[1] = tested on: HIV-1IIIB infected MT-4 cells; test: Anti-HIV activity, HIV-1IIIB infected MT-4 cells, MTT method (Test Example 1); assay type: cell-based; details: Human immunodeficiency virus 1, MT4, 120 h, concentration required for inhibition of cell disorder due to HIV infection by 50%, MOI 0.01, 5 days
Procedure: Immediately after infection, HIV-1IIIB infected MT-4 cells (3.0×10^4/well, MOI (Multiplicity of infection): 0.01) were added to a 96-well microtiter plate together with the test compounds having different concentrations. The cells were cultured in a carbon dioxide incubator at 37° C. for 5 days, and the number of living cells was measured in accordance with the MTT (tetrazolium) method ([…], et al., J. of Virol. Method, 20, 309-321 […]). The antiviral activity is represented by the concentration required for inhibition of cell disorder due to HIV infection by 50% (EC50: 50% Effective Concentration) (μM), and the results are shown in Table 2.

SD mice = test: Acute toxicity, single transvenous administration (Test Example 3); assay type: in vivo; details: 6-week-old male SD mice, 2.5 mg/kg transvenously once in physiological saline
Procedure: The aforementioned compound was examined for acute toxicity. Specifically, 6-week-old SD mice (male) were divided into several groups (2 to 3 mice in each group). Subsequently, each of the compounds of Examples was dissolved in a physiological saline solution, and the solution was transvenously administered to the mice (dose: 2.5 mg/kg) once. Then, the number of dead mice was counted.

T1 sequence (P61073 whole entry): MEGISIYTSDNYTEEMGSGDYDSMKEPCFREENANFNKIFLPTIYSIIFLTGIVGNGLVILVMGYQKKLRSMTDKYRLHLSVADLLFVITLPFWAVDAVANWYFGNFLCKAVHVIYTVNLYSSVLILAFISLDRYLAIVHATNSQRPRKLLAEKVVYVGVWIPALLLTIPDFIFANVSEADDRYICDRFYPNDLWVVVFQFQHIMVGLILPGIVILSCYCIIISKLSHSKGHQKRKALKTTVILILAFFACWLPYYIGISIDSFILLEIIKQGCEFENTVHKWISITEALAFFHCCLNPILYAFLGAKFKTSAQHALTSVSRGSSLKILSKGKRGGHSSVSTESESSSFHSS

| Structure (SMILES) | inhibition at 0.01 µM (CXCR4) [%] | EC50 [1] [nM] | Dead mice/test mice (SD mice) |
| --- | --- | --- | --- |
| CCCN(CCC)CCCCN(Cc1ccc(CN(Cc2ncc[nH]2)C2CCCc3cccnc32)cc1)S(C)(=O)=O (stereo not shown) [Compound No. 50, N-(4-dipropylamino-butyl)-N-(4-{[(1H-imidazol-2-ylmethyl)-(5,6,7,8-tetrahydro-quinolin-8-yl)-amino]-methyl}-benzyl)-methanesulfonamide] | 53.4 | 401 | 0/3 |
| CCCN(CCC)CCCc1cccc(-c2ccc(CN(Cc3ncc[nH]3)Cc3nccn3C)cc2)n1 [Compound No. 36, {3-[6-(4-{[(1H-imidazol-2-ylmethyl)-(1-methyl-1H-imidazol-2-ylmethyl)-amino]-methyl}-phenyl)-pyridin-2-yl]-propyl}-dipropyl-amine] | 58 | 656 | 0/3 |
| CCCN(CCC)CCCCNC(=S)Nc1ccc(CN(Cc2ncc[nH]2)Cc2nccn2C)cc1 [Compound No. 35, 1-(4-dipropylamino-butyl)-3-(4-{[(1H-imidazol-2-ylmethyl)-(1-methyl-1H-imidazol-2-ylmethyl)-amino]-methyl}-phenyl)-thiourea] | 86.3 | 7 | 0/3 |
| CCCN(CCC)CCCCc1nc2ccc(CN(Cc3ncc[nH]3)Cc3ncc[nH]3)cc2n1CCC [Compound No. 3, [4-(6-{[bis-(1H-imidazol-2-ylmethyl)-amino]-methyl}-1-propyl-1H-benzimidazol-2-yl)-butyl]-dipropyl-amine] | 71.4 | 3 | 0/3 |
| CCCN(CCC)CCCCN(C)C(C(=O)O)c1ccc(CN(Cc2ncc[nH]2)Cc2nccn2C)cc1 (stereo not shown) [Compound No. 120, [(4-dipropylamino-butyl)-methyl-amino]-(4-{[(1H-imidazol-2-ylmethyl)-(1-methyl-1H-imidazol-2-ylmethyl)-amino]-methyl}-phenyl)-acetic acid] | 79.7 | 4 | – |
| CCCN(CCC)CCCCN(CC)Cc1ccc(CN(Cc2ncc[nH]2)Cc2nccn2C)cc1 [Compound No. 23, N-ethyl-N-(4-{[(1H-imidazol-2-ylmethyl)-(1-methyl-1H-imidazol-2-ylmethyl)-amino]-methyl}-benzyl)-N′,N′-dipropyl-butane-1,4-diamine] | 78.2 | 3 | 0/3 |
| CCCN(CCC)Cc1ccc(-c2nc3ccc(CN(Cc4ncc[nH]4)Cc4nccn4C)cc3n2C)cc1 [Compound No. 29, [4-(6-{[(1H-imidazol-2-ylmethyl)-(1-methyl-1H-imidazol-2-ylmethyl)-amino]-methyl}-1-methyl-1H-benzimidazol-2-yl)-benzyl]-dipropyl-amine] | 71.2 | 61 | 0/3 |
| CCCN(CCC)CCCCN(C)C(=O)Nc1ccc(CN(Cc2ncc[nH]2)Cc2nccn2C)cc1 [Compound No. 26, 1-(4-dipropylamino-butyl)-3-(4-{[(1H-imidazol-2-ylmethyl)-(1-methyl-1H-imidazol-2-ylmethyl)-amino]-methyl}-phenyl)-1-methyl-urea] | 57.3 | 73 | 0/3 |
| CCCN(CCC)CCCCc1nc2ccc(CN(Cc3ncc[nH]3)Cc3nccn3C)cc2n1CCC [Compound No. 4, [4-(6-{[(1H-imidazol-2-ylmethyl)-(1-methyl-1H-imidazol-2-ylmethyl)-amino]-methyl}-1-propyl-1H-benzimidazol-2-yl)-butyl]-dipropyl-amine] | 94.9 | 3 | 0/3 |
| CCCN(CCC)CCCCc1nc2ccc(CN(Cc3ncc[nH]3)Cc3nccn3C)cc2n1C(C)C [Compound No. 47, [4-(6-{[(1H-imidazol-2-ylmethyl)-(1-methyl-1H-imidazol-2-ylmethyl)-amino]-methyl}-1-isopropyl-1H-benzimidazol-2-yl)-butyl]-dipropyl-amine] | 86.2 | 2 | 0/3 |
| CCCN(CCC)CCCCc1nc2ccc(CN(Cc3ncc[nH]3)Cc3nccn3C)cc2n1C [Compound No. 13, [4-(6-{[(1H-imidazol-2-ylmethyl)-(1-methyl-1H-imidazol-2-ylmethyl)-amino]-methyl}-1-methyl-1H-benzimidazol-2-yl)-butyl]-dipropyl-amine] | 75.5 | 3 | 0/3 |
| CCCN(CCC)CCCCNC(=O)c1ccc(CN(Cc2ccc(C)cn2)Cc2nccn2C)cc1 [Compound No. 20, N-(4-dipropylamino-butyl)-4-{[(1-methyl-1H-imidazol-2-ylmethyl)-(5-methyl-pyridin-2-ylmethyl)-amino]-methyl}-benzamide] | 73.2 | 4 | 0/3 |
| CCCN(CCC)CCCCN(CCO)Cc1ccc(CN(Cc2ncc[nH]2)Cc2nccn2C)cc1 [Compound No. 1, 2-[(4-dipropylamino-butyl)-(4-{[(1H-imidazol-2-ylmethyl)-(1-methyl-1H-imidazol-2-ylmethyl)-amino]-methyl}-benzyl)-amino]-ethanol] | 87.9 | 3 | 0/3 |
| CCCN(CCC)Cc1ccc(NC(=O)c2ccc(CN(Cc3ncc(C)cc3C)Cc3nccn3C)cc2)cc1 [Compound No. 15, 4-{[(3,5-dimethyl-pyridin-2-ylmethyl)-(1-methyl-1H-imidazol-2-ylmethyl)-amino]-methyl}-N-(4-dipropylaminomethyl-phenyl)-benzamide] | 74 | 6 | 0/3 |
| CCCN(CCC)CCCCN(C)C(=O)N(C)c1ccc(CN(Cc2ncc[nH]2)Cc2nccn2C)cc1 [Compound No. 27, 1-(4-dipropylamino-butyl)-3-(4-{[(1H-imidazol-2-ylmethyl)-(1-methyl-1H-imidazol-2-ylmethyl)-amino]-methyl}-phenyl)-1,3-dimethyl-urea] | 43.4 | 230 | 0/3 |
| CCCN(CCC)CCCCN(Cc1ccc(CN(Cc2ncc[nH]2)Cc2nccn2C)cc1)Cc1nnn[nH]1 [Compound No. 110, N-(4-{[(1H-imidazol-2-ylmethyl)-(1-methyl-1H-imidazol-2-ylmethyl)-amino]-methyl}-benzyl)-N′,N′-dipropyl-N-(1H-tetrazol-5-ylmethyl)-butane-1,4-diamine] | 71.4 | 4 | – |
| CCCN(CCC)CCCCN(Cc1ccc(CN(Cc2ncc[nH]2)Cc2nccn2C)cc1)S(=O)(=O)c1ccc(C)cc1 [Compound No. 22, N-(4-dipropylamino-butyl)-N-(4-{[(1H-imidazol-2-ylmethyl)-(1-methyl-1H-imidazol-2-ylmethyl)-amino]-methyl}-benzyl)-4-methyl-benzenesulfonamide] | 84.3 | 106 | 0/3 |
| CCCN(CCC)CCCCN(Cc1ccc(CN(Cc2ncc[nH]2)Cc2nccn2C)cc1)c1ccccc1 [Compound No. 24, N-(4-{[(1H-imidazol-2-ylmethyl)-(1-methyl-1H-imidazol-2-ylmethyl)-amino]-methyl}-benzyl)-N-phenyl-N′,N′-dipropyl-butane-1,4-diamine] | 50.1 | 95 | 0/3 |
| CCCN(CCC)CCCCN(CCC(=O)OC)Cc1ccc(CN(Cc2ncc[nH]2)Cc2nccn2C)cc1 [Compound No. 34, 3-[(4-dipropylamino-butyl)-(4-{[(1H-imidazol-2-ylmethyl)-(1-methyl-1H-imidazol-2-ylmethyl)-amino]-methyl}-benzyl)-amino]-propionic acid methyl ester] | 85.5 | 3 | 0/3 |
| CCCN(CCC)CCCCN(C)Cc1ccc(CN(Cc2ncc[nH]2)Cc2nccn2C)cc1C(=O)O [Compound No. 122, 2-{[(4-dipropylamino-butyl)-methyl-amino]-methyl}-5-{[(1H-imidazol-2-ylmethyl)-(1-methyl-1H-imidazol-2-ylmethyl)-amino]-methyl}-benzoic acid] | 71.3 | 4 | – |
| CCCN(CCC)CCOCCN(C)Cc1ccc(CN(Cc2ncc[nH]2)Cc2nccn2C)cc1 [Compound No. 109, (2-{2-[(4-{[(1H-imidazol-2-ylmethyl)-(1-methyl-1H-imidazol-2-ylmethyl)-amino]-methyl}-benzyl)-methyl-amino]-ethoxy}-ethyl)-dipropyl-amine] | 94.3 | 4 | – |
| CCCN(CCC)CCCCN(C)C(C(=O)OCC)c1ccc(CN(Cc2ncc[nH]2)Cc2nccn2C)cc1 (stereo not shown) [Compound No. 119, [(4-dipropylamino-butyl)-methyl-amino]-(4-{[(1H-imidazol-2-ylmethyl)-(1-methyl-1H-imidazol-2-ylmethyl)-amino]-methyl}-phenyl)-acetic acid ethyl ester] | 72.7 | 4 | – |
